In US20210205329A1 (The University of North Carolina at Chapel Hill, priority 2018, published 2021):

Key:
[1] = system: innately activated TLR4 signal in P rat VTA; test: TLR4 signaling in P rat VTA after systemic neurosteroid (immunoblot, MCP-1 ELISA); type: in vivo; conditions: 15 mg/kg IP, P rats
Experimental: Immunoblotting for whole VTA lysates was done as previously described (Carlson et al, 2013). Briefly, VTA micropunches (1 mm thick) were lysed with CelLytic MT (dialyzable mild detergent, bicine, and 150 mM NaCl; Sigma-Aldrich) and protease and phosphatase inhibitor cocktail according to the manufacturer's instructions. Total protein was determined by the BCA assay. The proteins (10 μg/lane) were resolved by NuPAGE™ 4-12% Bis-Tris Midi Protein Gel (Thermo Fisher, Waltham, Mass.) electrophoresis and transferred using the iBlot 2 Dry Blotting System (Thermo Fisher, Waltham, Mass.). Blots were then exposed to an antibody for β-actin for normalization. Proteins were detected with enhanced chemilumenescence (GE Healthcare, Amersham, UK). Membranes were exposed to film under non-saturating conditions. Densitometric analysis was conducted using NIH Image 1.57.
Animals. Selectively bred, but alcohol naïve Alcohol-preferring (P) rats (male, 3-4 months old; 250-550 g) (n=7-9/group) were obtained from the Alcohol Research Center, Indiana University School of Medicine, Animals were double housed in Plexiglas cages containing corn cob bedding and food and water was available ad libitum. The colony room was maintained on a normal 12 hr light-dark cycle (light onset at 0700 hr). Procedures followed National Institutes of Health Guidelines under UNC institutional Animal Care and Use Committee approved protocols at University of North Carolina School of Medicine. Rats were habituated to handling for 7 days prior to administration of 3α,5α-THP (15 mg/kg, IP), pregnenolone (75 mg/kg, IP), 3α,5α-THDOC (15 mg/kg, IP), or vehicle (45% w/v 2-hydroxypropyl-p-cyclodextrin) and returned to their home cage. Rats were sacrificed after 45 minutes and the brain was removed and frozen at −80° C. until VTA micropunches were collected from 1 mm cryostat brain sections. This time point was selected because 3α,5α-THP is rapidly metabolized in vivo (Purdy et al, 1990), but has behavioral and pharmacological activity at this time point (Crawley et al, 1986).
ELISA. Brain tissue micropunches were lysed with Cellyte MT and the extracts were assayed for protein content by the BCA procedure (Pierce) and for MCP-1 using the rat MCP-1 ELISA kit (Raybiotech—ERC-MCP-1-CL; Norcross, Ga., USA) or for fracktalkine using the rat fractalkine ELISA kit (Raybiotech—ERC-CX3CL1-CL; Norcross, Ga., USA) as per manufacturer's instructions.
Since the neurosteroids inhibited the TLR4 activation signal in cultured macrophage cells, experiments were conducted to determine whether this also occurs in the brain. Selectively bred P rats that have an innately activated TLR4 signal in the VTA (Liu J, et al. (2011). Proc Natl Acad Sci USA 108(11): 4465-4470), were administered 3α,5α-THP (15 mg/kg, IP) or pregnenolone (75 mg/kg, IP), sacrificed after 45 minutes and examined for TLR4 signaling using parallel measures. […] 3α,5α-THP administration reduced the levels of MCP-1 by 20±9% (p<0.05), TRAF6 by 19±3% (p<0.0001), and CRF by 28±9% (p<0.01), with no effect on TLR4 protein expression (FIG. 4A). Pregnenolone administration had no effect on TRAF6, CRF, or TLR4.

[2] = system: LPS-activated TLR4 signal; test: LPS-activated TLR4 signaling in RAW264.7 cells (immunoblotting); type: cell-based, mouse
Experimental: Cells and reagents. Mouse monocyte macrophage ceils (RAW264.7) that innately express the TLR4 receptor were obtained from American Type Culture Collection (Manassas, Va., USA). The cells were grown in Dulbecco's modified Eagle's medium (DMEM) (Gibco; Gaithersburg, Md., USA) supplemented with 10% fetal bovine serum (FBS, Gemini, West Sacramento, Calif., USA), 1% penicillin/streptomycin 100× (Gibco) at 37° C. in a 5% CO2 humidified atmosphere. The TLR4-specific ligand IPS was purchased from Sigma-Aldrich (St. Louis, Mo., USA) (Cat. #L3024) and added to the cultures (1 μg/ml) 24 hrs before cell collection.
Immunoblotting. The assay used for RAW264.7 cell lysates and co-immunoprecipitation was as previously described (Aurelian et al, 2016; June et al, 2015; Liu et al, 2011). RAW246.7 cells grown on T-75 flasks (n=5 flasks/group) were lysed with radioimmunoprecipitation (RIPA) buffer [20 mM Tris-HCl (pH 7.4), […], 1% Nonidet P-40 (Sigma, St. Louis, Mo., USA), 0.1% SDS (sodium dodecyl sulfate), 0.5% sodium deoxycholate] supplemented with protease and phosphatase inhibitor cocktails (Sigma). The total protein was determined by the bicinchoninic acid assay (BCA, Thermo Fisher Scientific, Waltham, Mass., USA, Cat. #23228 and Cat. #1859078). The proteins (100 μg/lane) were resolved by SDS-polyacrylamide gel electrophoresis using freshly prepared 16×18 cm gels and transferred to polyvinylidene fluoride membranes (PVDF, Bio-Rad, Cat. #162-0177). Blots were blocked with 5% Blotting-Grade Blocker (Bio-Rad, Cat. #1706404; for non-phosphorylated primary antibodies) or 5% BSA (for phosphorylated primary antibodies) for 2 hrs at room temperature (RT) and exposed to primary antibody overnight (4° C.), followed by horseradish peroxidase-labeled secondary antibodies for 1 h (room temp), immunoreactive bands were visualized with the Plus-ECL kit reagents (Perkin Elmer, Waltham, Mass., USA, Cat. #NEL105001EA) followed by exposure to high-performance chemiluminescence film (Hyperfilm ECL; Amersham). Quantitation was by densitometric scanning with a Bio-Rad GS-700 imaging densitometer. Blots were stripped and re-probed with different primary antibodies 3-5 times. Each densitometric measurement was divided by the corresponding β-Actin densitometric measurement and the results [n=5/group] are expressed as the mean β-Actin-adjusted densitometric units±SEM.
To examine whether the neurosteroids inhibit the LPS-activated TLR4 signal, RAW264.7 cells were treated with IPS (1 μg/mi; 24 hrs) in the absence or presence of 3α,5α-THP (0.5 μM, 1 μM) or pregnenolone (0.5 μM, 1 μM), and ceil extracts were assayed for expression of MyD88-dependent pathway members, by immunoblotting with antibodies to pTAK1, monocyte chemotactic protein (MCP-1), TRAF6, TLR4, and transcription factor NFκB p50 (Chattopadhyay S, et al. (2014). Cytokine Growth Factor Rev 25(5): 533-541; Irie T, et al. (2000). FEBS Lett 467(2-3): […]; Lu Y C, et al. (2008). Cytokine 42(2): 145-151).
Because the neurosteroids had relatively little effect on NFκB p50, the possibility that inhibition of other transcription factors and proinflammatory responses may be involved was considered. RAW246.7 ceils were treated as described above and protein extracts were immunoblotted with antibodies to phospho-NF-κB p65, pCREB, the proinflammatory cytokine tumor necrosis factor alpha (TNFα), and high mobility group box-1 (HMGB1), a highly conserved non-histone chromosomal protein, the translocation of which from the intra- to extra-cellular environment is a critical event in inflammatory responses. Indeed, HMGB1 is currently recognized as a cytokine secreted from activated macrophages and other inflammatory cells during the innate immune response and if is believed to function as a TLR4 ligand. […]

TLR7 signal = test: Imiquimod-activated TLR7 signaling in RAW264.7 cells; type: cell-based, mouse; conditions: imiquimod 1 μg/ml for 24 hours, RAW264.7
Experimental: Because multiple TLRs signal through MD-2, […] and MyD-88, the specificity of the neurosteroid 3α,5α-THP on TLR2, TLRS and TLR7 signal activation was examined in RAW264.7 ceils (FIG. 7). Pam3Cys (10 μg/ml) activated TLR2 signaling, evidenced by increases in pCREB, pERK1/2, TRAF6 and pATF-2, that were sustained for 24 hrs and inhibited by 3α,5α-THP (1 μM) (50-60% compared to vehicle).

TLR3 signal = test: Poly(I:C)-activated TLR3 signaling in RAW264.7 cells; type: cell-based, mouse; conditions: Poly-IC 25 μg/ml; 24 hrs; RAW264.7
[3] = 0.5 μM or 1 μM (concentration not assigned), RAW264.7
[4] = 1.0 μM, LPS 1 μg/ml, 24 hrs, RAW264.7

C[C@]12CC[C@@H](O)C[C@@H]1CC[C@@H]1[C@@H]2CC[C@]2(C)[C@@H](C(=O)CO)CC[C@@H]12 [3α,5α-THDOC, (3α,5α)3,21-dihydroxypregnan-20-one] was tested, and the “effect on TLR4 protein expression in VTA” value ([1]; 45 minutes) was “No effect”, the “increase of CRF levels in VTA” value [1] was 39±16% and the “increase of TRAF6 levels in VTA” value [1] was 32±12%. The “effect on MCP-1 expression in VTA” value ([1]; ELISA) was “no effect”, the “inhibition of LPS-activated MCP-1” value [2, 3] was “approximately 90%” and the “inhibition of LPS-activated NFκB p50” value [2, 3] was 30-40%. The “effect on TLR4 expression” value ([2]; 0.5 μM or 1 μM, LPS-treated RAW264.7, 24 hrs) was “did not affect”, the “enhancement of LPS-induced TRAF6” value ([2]; 0.5 μM, LPS 1 μg/ml, 24 hrs, RAW264.7) was 51.6±8.3% and the “enhancement of LPS-induced TRAF6” value [2, 4] was 16.8±5.7%. For the same compound, the “increase of LPS-induced pTAK1” value [2, 4] was 2 fold.
CC(C)Cn1cnc2c(N)nc3ccccc3c21 [imiquimod] was tested, and the “increase in pIRF7” value (TLR7 signal) was 30%.
With Poly-IC the “increase in IP-10 (CXCL10) expression” value (TLR3 signal) was 90%.
